In patent publication US20250345328A1, “METHODS OF TREATING A RAS RELATED DISEASE OR DISORDER” (Revolution Medicines, Inc., priority 2023, published 2025) one finds Mean tumor regression data, which are given here for 1 compound.

In this experiment the test system is human KRAS^G12C NSCLC NCI-H2122 xenograft tumors. In words: NCI-H2122 xenograft, Compound A plus RMC-6291 combination. The experiment is classed as in vivo. As to conditions: immune-deficient mice; repeated daily oral administration. The method, then:
The antitumor activity of Compound A in combination with RMC-6291 was evaluated using immune-deficient mice bearing human KRAS^G12C NSCLC NCI-H2122 xenograft tumors.

Regarding `CCn1c(-c2cccnc2[C@H](C)OC)c2c3cc(ccc31)N1CCO[C@@H](C[C@H](NC(=O)[C@H](C(C)C)N(C)C(=O)C3(F)CCN(C(=O)C#CC(C)(C)N(C)C)CC3)C(=O)N3CCC[C@H](N3)C(=O)OCC(C)(C)C2)C1` [RMC-6291], the Mean tumor regression entry is recorded as “mean tumor regressions were not achieved”.
